# Data: paper PMC6691788, “Design and synthesis of phthalazine-based compounds as potent anticancer agents with potential antiangiogenic activity via VEGFR-2 inhibition” (Journal of Enzyme Inhibition and Medicinal Chemistry, 2019)
# Key:
# Test in all cases: NCI 60 cell panel SRB screen
# HL-60(TB) = type: cell-based; conditions: Homo sapiens
# HCT-15 = type: cell-based; conditions: Homo sapiens
# MALME-3M = type: cell-based; conditions: Homo sapiens
# PC-3 = type: cell-based; conditions: Homo sapiens
# NCI-H226 = type: cell-based; conditions: Homo sapiens
# MCF7 = type: cell-based; conditions: Homo sapiens
# NCI-H23 = type: cell-based; conditions: Homo sapiens
# HCC-2998 = type: cell-based; conditions: Homo sapiens
# KM12 = type: cell-based; conditions: Homo sapiens
# 786-0 = type: cell-based; conditions: Homo sapiens
# CCRF-CEM = type: cell-based, human
# SNB-19 = type: cell-based; conditions: Homo sapiens
# RPMI-8226 = type: cell-based; conditions: Homo sapiens
# UACC-62 = type: cell-based
# SR = type: cell-based; conditions: Homo sapiens
# HCT-116 = type: cell-based; conditions: Homo sapiens
# SF-295 = type: cell-based; conditions: Homo sapiens
# RXF 393 = type: cell-based; conditions: Homo sapiens
# OVCAR-3 = type: cell-based; conditions: Homo sapiens
# [1] = 5 log dose, 48 h, read-out: LC50 (the source's name)
# [2] = single dose 10 μM, read-out: percent cell growth promotion
smiles,measurement,setting,value
"Clc1ccc(Nc2nnc(CNc3ccccc3)c3ccccc23)cc1 [Compound 16a, N-(4-Chlorophenyl)-4-((phenylamino)methyl)phthalazin-1-amine]",GI50,HL-60(TB); 5 log dose,3.71 µM
same,IC (TGI),HL-60(TB); 5 log dose,13 µM
same,CC50,HL-60(TB); [1],> 25 µM
same,activity at 10 µM,HL-60(TB); [2],-13.3%
same,GI50,"HCT-15; HCT-15, 5 log dose",2.99 µM
same,IC (TGI),"HCT-15; HCT-15, 5 log dose",9.39 µM
same,CC50,"HCT-15; HCT-15, 5 log dose, 48 h, read-out: LC50 (the source's name)",> 25 µM
same,activity at 10 µM,"HCT-15; HCT-15, single dose 10 μM, read-out: percent cell growth promotion",13.4%
same,GI50,MALME-3M; Malme-3M,2.66 µM
same,IC (TGI),"MALME-3M; Malme-3M, read-out: TGI",9.92 µM
same,activity at 10 µM,"MALME-3M; Malme-3M, read-out: percent cell growth promotion",-13.8%
same,CC50,"MALME-3M; MALME-3M, 5 log dose, 48 h, read-out: LC50 (the source's name)",> 25 µM
same,GI50,"PC-3; PC-3, 5 log dose",14.4 µM
same,IC (TGI),"PC-3; PC-3, 5 log dose",14.4 µM
same,CC50,"PC-3; PC-3, 5 log dose, 48 h, read-out: LC50 (the source's name)",> 25 µM
same,activity at 10 µM,"PC-3; PC-3, single dose 10 μM, read-out: percent cell growth promotion",7.15%
same,GI50,"NCI-H226; NCI-H226, 5 log dose",2.52 µM
same,IC (TGI),"NCI-H226; NCI-H226, 5 log dose",7.98 µM
same,CC50,"NCI-H226; NCI-H226, 5 log dose, 48 h, read-out: LC50 (the source's name)",> 25 µM
same,activity at 10 µM,"NCI-H226; NCI-H226, single dose 10 μM, read-out: percent cell growth promotion",25%
same,IC (TGI),"MCF7; MCF7, read-out: TGI",11.1 µM
same,activity at 10 µM,"MCF7; MCF7, read-out: percent cell growth promotion",9.2%
same,CC50,"MCF7; MCF7, 5 log dose, 48 h, read-out: LC50 (the source's name)",> 25 µM
same,GI50,"NCI-H23; NCI-H23, 5 log dose",2.5 µM
same,IC (TGI),"NCI-H23; NCI-H23, 5 log dose",16.4 µM
same,CC50,"NCI-H23; NCI-H23, 5 log dose, 48 h, read-out: LC50 (the source's name)",> 25 µM
same,activity at 10 µM,"NCI-H23; NCI-H23, single dose 10 μM, read-out: percent cell growth promotion",9.95%
same,GI50,"HCC-2998; HCC-2998, 5 log dose",4.85 µM
same,IC (TGI),"HCC-2998; HCC-2998, 5 log dose",1.59 µM
same,LC50 (50% lethal concentration),"HCC-2998; HCC-2998, 5 log dose, 48 h",> 25 µM
same,activity at 10 µM,"HCC-2998; HCC-2998, single dose 10 μM, read-out: percent cell growth promotion",18.3%
same,GI50,"KM12; KM12, 5 log dose",3.05 µM
same,IC (TGI),"KM12; KM12, 5 log dose",9.91 µM
same,CC50,"KM12; KM12, 5 log dose, 48 h, read-out: LC50 (the source's name)",> 25 µM
same,activity at 10 µM,"KM12; KM12, single dose 10 μM, read-out: percent cell growth promotion",8.93%
same,GI50,"786-0; 786-0, 5 log dose",4.01 µM
same,IC (TGI),"786-0; 786-0, 5 log dose",12.5 µM
same,CC50,"786-0; 786-0, 5 log dose, 48 h, read-out: LC50 (the source's name)",> 25 µM
same,activity at 10 µM,"786-0; 786-0, single dose 10 μM, read-out: percent cell growth promotion",21.4%
same,TGI,CCRF-CEM; 5 log dose,17.6 µM
same,GI50,"CCRF-CEM; Homo sapiens, 5 log dose",3.53 µM
same,CC50,"CCRF-CEM; Homo sapiens, 5 log dose, 48 h, read-out: LC50 (the source's name)",> 25 µM
same,activity at 10 µM,"CCRF-CEM; Homo sapiens, single dose 10 μM, read-out: percent cell growth promotion",12.4%
same,GI50,"SNB-19; SNB-19, 5 log dose",4.71 µM
same,IC (TGI),"SNB-19; SNB-19, 5 log dose",22.7 µM
same,CC50,"SNB-19; SNB-19, 5 log dose, 48 h, read-out: LC50 (the source's name)",> 25 µM
same,activity at 10 µM,"SNB-19; SNB-19, single dose 10 μM, read-out: percent cell growth promotion",25.9%
same,GI50,"RPMI-8226; RPMI-8226, 5 log dose",2.1 µM
same,IC (TGI),"RPMI-8226; RPMI-8226, 5 log dose",7.71 µM
same,CC50,"RPMI-8226; RPMI-8226, 5 log dose, 48 h, read-out: LC50 (the source's name)",> 25 µM
same,activity at 10 µM,"RPMI-8226; RPMI-8226, single dose 10 μM, read-out: percent cell growth promotion",3.35%
same,GI50,"UACC-62; Homo sapiens, UACC-62",1.25 µM
same,activity at 10 µM,"UACC-62; Homo sapiens, UACC-62, read-out: percent cell growth promotion",8.47%
same,CC50,"UACC-62; Homo sapiens, UACC-62, 5 log dose, 48 h, read-out: LC50 (the source's name)",19 µM
same,TGI,"UACC-62; UACC-62, 5 log dose",5.70 µM
same,GI50,SR; 5 log dose,1.75 µM
same,IC (TGI),SR; 5 log dose,12.3 µM
same,CC50,SR; [1],> 25 µM
same,activity at 10 µM,SR; [2],-9.19%
same,GI50,"HCT-116; HCT-116, 5 log dose",1.2 µM
same,IC (TGI),"HCT-116; HCT-116, 5 log dose",5.02 µM
same,LC50 (lethal concentration 50%),"HCT-116; HCT-116, 5 log dose, 48 h",13.3 µM
same,activity at 10 µM,"HCT-116; HCT-116, single dose 10 μM, read-out: percent cell growth promotion",9.94%
same,GI50,"SF-295; SF-295, 5 log dose",2.98 µM
same,IC (TGI),"SF-295; SF-295, 5 log dose",8.77 µM
same,CC50,"SF-295; SF-295, 5 log dose, 48 h, read-out: LC50 (the source's name)",> 25 µM
same,activity at 10 µM,"SF-295; SF-295, single dose 10 μM, read-out: percent cell growth promotion",14.3%
same,GI50,"RXF 393; RXF 393, 5 log dose",2.6 µM
same,IC (TGI),"RXF 393; RXF 393, 5 log dose",8.12 µM
same,CC50,"RXF 393; RXF 393, 5 log dose, 48 h, read-out: LC50 (the source's name)",> 25 µM
same,activity at 10 µM,"RXF 393; RXF 393, single dose 10 μM, read-out: percent cell growth promotion",25.7%
same,GI50,"OVCAR-3; OVCAR-3, 5 log dose",3.51 µM
same,IC (TGI),"OVCAR-3; OVCAR-3, 5 log dose",8.69 µM
same,CC50,"OVCAR-3; OVCAR-3, 5 log dose, 48 h, read-out: LC50 (the source's name)",21.5 µM
same,activity at 10 µM,"OVCAR-3; OVCAR-3, single dose 10 μM, read-out: percent cell growth promotion",-1.64%
